# Assay results taken from article PMC11519904, “Comprehensive Cell Biological Investigation of Cytochalasin B Derivatives with Distinct Activities on the Actin Network” (Journal of Natural Products, 2024).
# “Also recorded” adds a separate entry of the source. Read-outs that look alike come from different tables or passages of the source.
# Legend:
# [1] = tested on: filamentous actin (F-actin) in U-2OS wild type (wt) cells; experiment: Actin disruption assay in U-2OS cells (phalloidin staining); format: cell-based, human; details: for effect on F-actin network, high dose 1 h: 5 x IC50 (L929), compared to control; for effect on actin and nuclei number, high dose 24 h: 5 x IC50, 24 h, differences between 1 and 24 h treatment
# Method: For this, the human osteosarcoma cell line U-2OS was treated using concentrations estimated based on previously determined IC50 values in murine L929 fibroblasts (Table 1), referred to as low dose (1 × IC50), and a 5-fold concentration, referred to as high dose (5 × IC50). Reorganization of the F-actin network was also investigated upon high dose treatment, followed by washout and a 1 h recovery phase in fresh medium. The impact on F-actin network organization was visualized using fluorescently labeled phalloidin (Figure 2). […] In addition, the effects on F-actin structures observed upon high dose treatment of all compounds were fully reversible after a 1 h recovery time (Figure 2m–q).
# The respective previously determined IC50 values in L929 were used to calculate the treatment concentration (1 × IC50: low dose; 5 × IC50: high dose).[37] DMSO was used as the vehicle control, corresponding to the highest compound volume used in the assay. Coverslips were coated with 25 μg/mL fibronectin (Roche, Mannheim, Germany) diluted 1:40 in phosphate buffered saline (PBS, pH 7.4, Life Technologies), and cells were seeded at a density of 20,000 cells and allowed to spread overnight. CO2-equilibrated culture medium was spiked with the desired compound and DMSO, respectively, in the above-mentioned concentration, and cells were treated with prepared medium for 1 h under cell culture conditions. For long-term experiments, the treatment phase was extended to 24 h. Cells were washed once and fixed afterward using 4% prewarmed paraformaldehyde (PFA) supplied in PBS for 20 min at 37 °C, followed by three additional washing steps with prewarmed PBS buffer. In addition, the reversibility of high dose effects on F-actin network organization was investigated by a washout procedure including three times prewarmed PBS wash steps prior to the addition of fresh medium and a recovery time of 1 h before fixation. In the case of 24 h treatments, the recovery phase was extended to 47 h. Cells were permeabilized with 0.1% Triton X-100 (Bio-Rad Laboratories, Hercules, CA, USA) in PBS buffer for 1 min at room temperature, washed three times with PBS, and stained for F-actin using ATTO-594-coupled phalloidin (ATTO-Tec, Siegen, Germany) diluted in PBS buffer (1:100) for 1 h at room temperature. Coverslips were washed thrice in PBS and mounted in ProLong Diamond antifade mountant (Invitrogen) containing DAPI to probe for nuclear DNA. Cells were recorded using an inverted microscope (Nikon Eclipse Ti2, Tokyo, Japan) equipped with a 60 times Nikon oil immersion objective (Plan Apofluar, 1.4 NA), a pE-4000 (CoolLED, Andover, UK) as light source, and a pco.edge back-illuminated sCMOS camera (Excelitas Technologies, Mississauga, ON, Canada). The microscopy system was operated by and images were recorded with NIS (Nikon) and processed with ImageJ (NIH, Bethesda, MD, USA).
# L929 (mouse fibroblast) = experiment: Cytotoxicity assay (MTT), L929; format: cell-based; details: 5 days of incubation, MTT, NC: no cytotoxic effect, or only weak inhibition of proliferation, read-out: IC50 L929
# Method: The cytotoxicity assay was implemented in 96-well flat-bottom microtiter plates following a reported procedure.[21],[22],[33] The mammalian cell lines L929 (mouse fibroblast) and KB3.1 (human cervix carcinoma) were cultivated at 37 °C and 10% CO2 in Dulbecco’s modified minimum essential medium (DMEM, Life Technologies, Carlsbad, CA, USA) supplemented with 10% fetal bovine serum (FBS, Life Technologies). The microtiter plate was filled with 120 μL of suspended cells (50,000/mL), and 60 μL of a serial dilution of the test compound was added. After 5 days of incubation, growth inhibition (IC50) was determined by a colorimetric tetrazolium dye MTT assay.[34] The compounds were dissolved in MeOH (1 mg/mL), MeOH was used as negative control, and epothilone[35] (1 mg/mL) was used as positive control.
# [2] = Microextraction of compounds from medium after cell exposure (conversion to 2); format: in vitro ADME, human; details: for conversion to 2 after 1 h: 1 h cell exposure (data not shown)
# Method: […] Therefore, cells were seeded and treated with 5 × IC50 concentrations, as already described. […] After evaporation of EtOAc, the dried extracts were diluted in methanol (50 μL) and measured with a high-pressure liquid chromatography system coupled to a diode-array UV/vis detector conjugated with an electrospray ionization mass spectrometer, using an UltiMate 3000 Series uHPLC (Thermo Fisher Scientific) utilizing a C18 Acquity UPLC BEH column (2.1 × 50 mm, 1.7 μm; Waters, Milford, USA) connected to an amaZon speed ESI-Iontrap-MS (Bruker, Billerica, MA, USA). Spectra were analyzed using Bruker Compass DataAnalysis 4.4 SR1.
Structure (SMILES),"effect on F-actin network, high dose 1 h ([1]; 1 h)","effect on actin and nuclei number, high dose 24 h [1]",IC50 (L929 (mouse fibroblast)) [µM],"IC50 (L929 (mouse fibroblast); Mus musculus, L929, 120 h) [µM]","conversion to 2 / decomposition after 24 h cell exposure ([2]; medium re-extracted after 24 h, 5 x IC50, HPLC-UV-MS)",conversion to 2 after 1 h [2],"effect on F-actin network, low dose ([1]; 1 x IC50 (L929), 1 h)"
"C=C1[C@@H](C)[C@H]2[C@H](Cc3ccccc3)NC(=O)[C@]23OC(=O)/C=C/[C@H](O)CCC[C@@H](C)C/C=C/[C@H]3[C@@H]1OC(C)=O [Compound 3, 7-O-acetyl cytochalasin B]",no such structures; also recorded: no effect,"+ actin disruption; also recorded: altered actin structures, however without inducing multinucleation",16,> 10,no decomposition,–,–
"C=C1[C@@H](C)[C@H]2[C@H](Cc3ccccc3)N(C(C)=O)C(=O)[C@]23OC(=O)/C=C/[C@H](O)CCC[C@@H](C)C/C=C/[C@H]3[C@@H]1O [Compound 5, N-acetyl cytochalasin B]",only slight; also recorded: moderate effects,+ multinucleation actin disruption,9.4,4.8 to 9.4,–,little conversion,–
"C=C1[C@@H](C)[C@H]2[C@H](Cc3ccccc3)NC(=O)[C@]23OC(=O)/C=C/[C@H](OC(C)=O)CCC[C@@H](C)C/C=C/[C@H]3[C@@H]1O [Compound 6, 20-O-acetyl cytochalasin B]",complete collapse of the F-actin network; also recorded: actin disruption,+ multinucleation,4.8,4.8 to 9.4,–,not detected,"partially led to compromised lamellipodia and a reduction of intermittent, cytoplasmic F-actin"
